Data taken from patent publication US12692235B2, “Fused ring compound and application thereof” (WUHAN LL SCIENCE AND TECHNOLOGY DEVELOPMENT CO., LTD., priority 2019, dated 2026).

Molecular target: T1, hP2X4 (human purinergic P2X receptor subtype 4) (Homo sapiens, UniProt Q99571)
T1 sequence (Q99571 1-404 isoform Q99571-2): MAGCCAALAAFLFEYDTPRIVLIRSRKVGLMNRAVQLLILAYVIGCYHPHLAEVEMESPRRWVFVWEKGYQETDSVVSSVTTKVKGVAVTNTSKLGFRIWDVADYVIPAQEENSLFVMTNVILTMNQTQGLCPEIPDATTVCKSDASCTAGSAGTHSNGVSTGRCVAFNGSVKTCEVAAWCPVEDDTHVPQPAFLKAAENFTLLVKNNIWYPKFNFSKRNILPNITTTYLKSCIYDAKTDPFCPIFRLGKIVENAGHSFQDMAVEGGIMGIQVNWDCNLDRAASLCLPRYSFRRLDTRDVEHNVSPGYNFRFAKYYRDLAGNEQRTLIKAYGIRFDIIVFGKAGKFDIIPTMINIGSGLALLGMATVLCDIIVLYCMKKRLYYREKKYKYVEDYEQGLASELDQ
Settings: P2X4 IC50 (nM), HEK293 cells stably expressing hP2X4; agonist BZ-ATP 2.5 μM; FLIPR calcium
Experimental: Cells at 400,000 cells/mL were seeded into a 384-well plate (10,000 cells/well) 18-24 h prior to the FLIPR experiment and then incubated overnight in a cell incubator. […] Each well was added with 20 μL of 0.5×Calcium 6 fluorescent dye (Molecular Devices, R8190) and then the cells were subjected to dye-loading incubation at 37° C. for 1.5 h. Each well was added with 10 μL of respective test compound (dissolved in DMSO at a concentration of 10 mM and serially diluted with buffer) or vehicle and the mixture was equilibrated for 30 min at room temperature.

Structure (SMILES) | IC50
CC(C)OC(=O)N1CCc2c(cc(NC(=O)Cc3ccccc3Cl)cc2S(N)(=O)=O)C1 [Compound 100, isopropyl-7-(2-(2-chlorophenyl)acetamido)-5-sulfamoyl-3,4-dihydroisoquinoline-2(1H)-carboxylate] | 10 to 50 nM
NS(=O)(=O)c1cc(NC(=O)Cc2ccccc2Cl)cc2cnc(C(F)(F)F)cc12 [Compound 19, 2-(2-chlorophenyl)-N-(−5-sulfamoyl-3-(trifluoromethyl)isoquinolin-7-yl)acetamide] | < 10 nM
Cc1nccc2c(S(N)(=O)=O)cc(NC(=O)Cc3ccccc3Cl)cc12 [Compound 55] | 50 to 200 nM
Cc1ccc(N2CCc3c(cc(NC(=O)Cc4ccccc4Cl)cc3S(N)(=O)=O)C2)nc1 [Compound 121, 2-(2-chlorophenyl)-N-(2-(5-methylpyridin-2-yl)-5-sulfamoyl-1,2,3,4-tetrahydroisoquinoline-7-yl)acetamide] | 50 to 200 nM
NS(=O)(=O)c1cc(NC(=O)Cc2ccccc2Cl)cc2c(Oc3ccc(F)cc3)nccc12 [Compound 31, 2-(2-chlorophenyl)-N-(1-(4-fluorophenoxy)-5-sulfamoylisoquinolin-7-yl)acetamide] | 10 to 50 nM
NS(=O)(=O)c1cc(NC(=O)Cc2ccccc2Cl)cc2nc(Cl)ccc12 [Compound 57] | 50 to 200 nM
CN(C)c1ccc2c(S(N)(=O)=O)cc(NC(=O)Cc3ccccc3Cl)cc2n1 [Compound 88, 2-(2-chlorophenyl)-N-(2-(dimethylamino)-5-sulfamoylquinolin-7-yl)acetamide] | 50 to 200 nM
NS(=O)(=O)c1cc(NC(=O)Cc2ccc(F)cc2Cl)cc2c1CCN(c1ccc(F)cn1)C2 [Compound 122] | 200 to 5000 nM
COc1nccc2c(S(N)(=O)=O)cc(NC(=O)Cc3ccccc3OC(F)(F)F)cc12 [Compound 96, N-(1-methoxy-5-sulfamoylisoquinolin-7-yl)-2-(2-(trifluoromethoxy)phenyl)acetamide] | 200 to 5000 nM
CN1CCc2c(cc(NC(=O)Cc3ccccc3Cl)cc2S(N)(=O)=O)C1 [Compound 112, 2-(2-chlorophenyl)-N-(2-methyl-5-sulfamoyl-1,2,3,4-tetrahydroisoquinolin-7-yl)acetamide] | 10 to 50 nM
COc1nccc2c(S(C)(=N)=O)cc(NC(=O)Cc3ccccc3Cl)cc12 (centres unmarked) [Compound 53, 2-(2-chlorophenyl)-N-(1-methoxy-5-(S-methylsulfonimidoyl)isoquinolin-7-yl)acetamide] | 200 to 5000 nM
CC(C)N1CCc2c(cc(NC(=O)Cc3ccccc3Cl)cc2S(N)(=O)=O)C1 [Compound 113, 2-(2-chlorophenyl)-N-(2-isopropyl-5-sulfamoyl-1,2,3,4-tetrahydroisoquinolin-7-yl)acetamide] | 50 to 200 nM
NS(=O)(=O)c1cc(NC(=O)Cc2ccccc2Cl)cc2c1CCN(C(=O)Oc1ccccc1)C2 [Compound 105, phenyl 7-(2-(2-chlorophenyl)acetamido)-5-sulfamoyl-3,4-dihydroisoquinoline-2(1H)-carboxylate] | 50 to 200 nM
COc1nccc2c(S(N)(=O)=O)cc(NC(=O)Cc3c(Cl)ccc(F)c3O)cc12 [Compound 63, 2-(6-chloro-3-fluoro-2-hydroxyphenyl)-N-(1-methoxy-5-sulfamoylisoquinolin-7-yl)acetamide] | 200 to 5000 nM
NS(=O)(=O)c1cc(NC(=O)Cc2ccccc2Cl)cc2nc(N3CCCCC3)ccc12 [Compound 67, 2-(2-chlorophenyl)-N-(2-(piperidin-1-yl)-5-sulfamoylquinolin-7-yl)acetamide] | 200 to 5000 nM
N#Cc1ccc2cc(NC(=O)Cc3ccccc3Cl)cc(S(N)(=O)=O)c2c1 [Compound 42, 2-(2-chlorophenyl)-N-(6-cyano-4-sulfamoylnaphthalen-2-yl)acetamide] | 10 to 50 nM
NS(=O)(=O)c1cc(NC(=O)Cc2ccccc2Cl)cc2c(Oc3ccccc3)nccc12 [Compound 30, 2-(2-chlorophenyl)-N-(1-phenoxy-5-sulfamoylisoquinolin-7-yl)acetamide] | 10 to 50 nM
